# Measured values reported in PubChem BioAssay AID256 (DTP/NCI, 2004).
# Inconclusive results and toxic doses are left out.
# System: CD2F1 mice, L1210 leukemia ip, survival T/C
# Assay: NCI In Vivo Anticancer Drug Screen. Data for tumor model L1210 Leukemia (intraperitoneal) in CD2F1 (CDF1) mice
# Conditions: endpoint: mean survival time, higher = longer survival
# Summary of the method: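 Vehicle-treated tumor-bearing mice served as controls (C) for compound-treated mice (T). Reported figure is T divided by C.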
# [1] = dose: 50.0 mg/kg/injection, schedule: Q01DX009 (ip), vehicle: saline with Tween-80
# [2] = dose: 100.0 mg/kg/injection, schedule: Q04DX003 (ip), vehicle: saline with Tween-80
# [3] = dose: 200.0 mg/kg/injection, schedule: Q04DX003 (ip), vehicle: saline with Tween-80
# [4] = dose: 100.0 mg/kg/injection, schedule: Q01DX009 (ip), vehicle: saline with Tween-80
smiles,measurement,setting,value
CC(=O)Nc1ccn(C2OC(CO)C(O)C2O)c(=O)n1 (configuration not stated),T/C,"dose: 12.5 mg/kg/injection, schedule: Q03HX024 (ip), vehicle: saline",196 % of control
same,T/C,"dose: 25.0 mg/kg/injection, schedule: Q03HX024 (ip), vehicle: saline",274 % of control
same,T/C,"dose: 37.5 mg/kg/injection, schedule: Q01DX008 (ip), vehicle: saline",150 % of control
same,T/C,"dose: 50.0 mg/kg/injection, schedule: Q03HX024 (ip), vehicle: saline",257 % of control
same,T/C,"dose: 50.0 mg/kg/injection, schedule: Q04DX003 (ip), vehicle: saline",113 % of control
same,T/C,"dose: 75.0 mg/kg/injection, schedule: Q01DX008 (ip), vehicle: saline",160 % of control
same,T/C,"dose: 100.0 mg/kg/injection, schedule: Q04DX003 (ip), vehicle: saline",117 % of control
same,T/C,"dose: 150.0 mg/kg/injection, schedule: Q01DX001 (ip), vehicle: saline",106 % of control
same,T/C,"dose: 150.0 mg/kg/injection, schedule: Q01DX008 (ip), vehicle: saline",174 % of control
same,T/C,"dose: 300.0 mg/kg/injection, schedule: Q01DX001 (ip), vehicle: saline",107 % of control
same,T/C,"dose: 600.0 mg/kg/injection, schedule: Q01DX001 (ip), vehicle: saline",107 % of control
same,T/C,"dose: 1200.0 mg/kg/injection, schedule: Q01DX001 (ip), vehicle: saline",104 % of control
CC(Br)C(C)Br (configuration not stated),T/C,"dose: 50.0 mg/kg/injection, schedule: Q01DX009 (ip), vehicle: saline",103 % of control
same,T/C,"dose: 100.0 mg/kg/injection, schedule: Q01DX009 (ip), vehicle: saline",95 % of control
same,T/C,"dose: 200.0 mg/kg/injection, schedule: Q01DX009 (ip), vehicle: saline",100 % of control
CCCCNCCO,T/C,"dose: 100.0 mg/kg/injection, schedule: Q01DX001 (ip), vehicle: saline",104 % of control
COC(=O)c1cccc(N=NN(C)C)c1,T/C,"dose: 23.0 mg/kg/injection, schedule: Q01DX009 (ip), vehicle: Klucel (hydroxypropylcellulose) (HPC)",108 % of control
same,T/C,"dose: 39.0 mg/kg/injection, schedule: Q01DX009 (ip), vehicle: Klucel (hydroxypropylcellulose) (HPC)",98 % of control
same,T/C,"dose: 65.0 mg/kg/injection, schedule: Q01DX009 (ip), vehicle: Klucel (hydroxypropylcellulose) (HPC)",97 % of control
same,T/C,"dose: 108.0 mg/kg/injection, schedule: Q01DX009 (ip), vehicle: Klucel (hydroxypropylcellulose) (HPC)",104 % of control
Nc1ccc(OC(=O)Oc2ccc(N)cc2)cc1,T/C,"dose: 18.75 mg/kg/injection, schedule: Q06HX068 (ip), vehicle: other",87 % of control
same,T/C,"dose: 18.75 mg/kg/injection, schedule: Q#A X034 (ip), vehicle: other",100 % of control
same,T/C,"dose: 37.5 mg/kg/injection, schedule: Q01DX017 (ip), vehicle: other",106 % of control
same,T/C,"dose: 37.5 mg/kg/injection, schedule: Q#A X034 (ip), vehicle: other",103 % of control
same,T/C,"dose: 75.0 mg/kg/injection, schedule: Q01DX001 (ip), vehicle: other",100 % of control
same,T/C,"dose: 75.0 mg/kg/injection, schedule: Q01DX005 (ip), vehicle: other",112 % of control
same,T/C,"dose: 150.0 mg/kg/injection, schedule: Q01DX001 (ip), vehicle: other",102 % of control
same,T/C,"dose: 150.0 mg/kg/injection, schedule: Q01DX017 (ip), vehicle: other",154 % of control
same,T/C,"dose: 150.0 mg/kg/injection, schedule: Q#A X034 (ip), vehicle: other",155 % of control
same,T/C,"dose: 300.0 mg/kg/injection, schedule: Q01DX001 (ip), vehicle: other",103 % of control
Cc1cc2nc(Cc3ccccc3)[nH]c2cc1C,T/C,"dose: 12.5 mg/kg/injection, schedule: Q01DX009 (ip), vehicle: saline with Tween-80",102 % of control
same,T/C,"dose: 25.0 mg/kg/injection, schedule: Q01DX009 (ip), vehicle: saline with Tween-80",95 % of control
same,T/C,[1],91 % of control
same,T/C,[2],94 % of control
same,T/C,[3],86 % of control
C=CC(=O)NC(C)(C)CC(C)(C)C,T/C,[4],105 % of control
same,T/C,[2],92 % of control
same,T/C,[3],102 % of control
same,T/C,"dose: 400.0 mg/kg/injection, schedule: Q04DX003 (ip), vehicle: saline with Tween-80",96 % of control
CCCCC(=O)/C=C/c1ccccc1,T/C,"dose: 50.0 mg/kg/injection, schedule: Q04DX002 (ip), vehicle: saline with Tween-80",97 % of control
same,T/C,"dose: 100.0 mg/kg/injection, schedule: Q04DX002 (ip), vehicle: saline with Tween-80",87 % of control
same,T/C,"dose: 200.0 mg/kg/injection, schedule: Q04DX002 (ip), vehicle: saline with Tween-80",105 % of control
same,T/C,"dose: 400.0 mg/kg/injection, schedule: Q04DX002 (ip), vehicle: saline with Tween-80",91 % of control
CC1(C)CC2(OC2c2ccccc2)C(=O)c2ccccc21 (configuration not stated),T/C,"dose: 12.5 mg/kg/injection, schedule: Q01DX009 (ip), vehicle: Klucel (hydroxypropylcellulose) (HPC)",96 % of control
same,T/C,"dose: 25.0 mg/kg/injection, schedule: Q01DX009 (ip), vehicle: Klucel (hydroxypropylcellulose) (HPC)",92 % of control
same,T/C,"dose: 50.0 mg/kg/injection, schedule: Q01DX009 (ip), vehicle: Klucel (hydroxypropylcellulose) (HPC)",87 % of control
same,T/C,"dose: 100.0 mg/kg/injection, schedule: Q01DX009 (ip), vehicle: Klucel (hydroxypropylcellulose) (HPC)",96 % of control
same,T/C,"dose: 200.0 mg/kg/injection, schedule: Q01DX009 (ip), vehicle: Klucel (hydroxypropylcellulose) (HPC)",94 % of control
same,T/C,"dose: 400.0 mg/kg/injection, schedule: Q01DX009 (ip), vehicle: Klucel (hydroxypropylcellulose) (HPC)",94 % of control
c1ccc2c(c1)ccn2CCCCn1ccc2ccccc21,T/C,[1],101 % of control
same,T/C,[4],101 % of control
same,T/C,"dose: 200.0 mg/kg/injection, schedule: Q01DX009 (ip), vehicle: saline with Tween-80",101 % of control
